Data as given in the supplement of paper PMC11061612.

Key:
Assay in all cases: Bliss excess, mean over the matrix (fraction); higher = more synergy
[1] = system: GR-ST (B-Lymphoblastic Leukemia)
Method in brief: (§1)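 After 24 hours at 37°C and 5% CO2 in 1536-well plates, cells in DMEM/F12 or RPMI plus 10% FBS received two-drug dose matrices for 72 hours. Viability came from CellTiter-Glo 2.0 luminescence and was scaled as inhibition, anchored at 0 by vehicle wells and at 1 by blank wells. Combination Emax is taken as the second-highest inhibition in the matrix, and Bliss excess as the observed combination effect less EA + EB − EA·EB, with EA and EB the single-agent effects.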

[2] = system: ES1 (Ewing's Sarcoma)
Method in brief: as §1

[3] = system: CHP-212 (Neuroblastoma)
Method in brief: as §1

[4] = system: MOLT-16 (T-Lymphoblastic Leukemia)
Method in brief: as §1

[5] = system: NCI-H2818 (Mesothelioma)
Method in brief: as §1

[6] = system: KM12 (Colorectal Carcinoma)
Method in brief: as §1

[7] = system: WM-115 (Melanoma)
Method in brief: as §1

[8] = system: MS751 (Cervical Carcinoma)
Method in brief: as §1

[9] = system: WIL2-NS (Non-Cancerous)
Method in brief: as §1

[10] = system: ES8 (Ewing's Sarcoma)
Method in brief: as §1

[11] = system: SW1417 (Colorectal Carcinoma)
Method in brief: as §1

[12] = system: HL-60 (Acute Myeloid Leukemia)
Method in brief: as §1

[13] = system: CAMA-1 (Breast Carcinoma)
Method in brief: as §1

[14] = system: BL-41 (Burkitt's Lymphoma)
Method in brief: as §1

[15] = system: SU-DHL-8 (B-Cell Non-Hodgkin's Lymphoma)
Method in brief: as §1

[16] = system: BFTC-905 (Bladder Carcinoma)
Method in brief: as §1

[17] = system: MKN28 (Gastric Carcinoma)
Method in brief: as §1

[18] = system: KARPAS-45 (T-Lymphoblastic Leukemia)
Method in brief: as §1

[19] = system: MEL-JUSO (Melanoma)
Method in brief: as §1

| SMILES | Bliss excess [1] | Bliss excess [2] | Bliss excess [3] | Bliss excess [4] | Bliss excess [5] | Bliss excess [6] | Bliss excess [7] | Bliss excess [8] | Bliss excess [9] | Bliss excess [10] | Bliss excess [11] | Bliss excess [12] | Bliss excess [13] | Bliss excess [14] | Bliss excess [15] | Bliss excess [16] | Bliss excess [17] | Bliss excess [18] | Bliss excess [19] |
| --- | --- | --- | --- | --- | --- | --- | --- | --- | --- | --- | --- | --- | --- | --- | --- | --- | --- | --- | --- |
| Cc1nc(Nc2ncc(C(=O)Nc3c(C)cccc3Cl)s2)cc(N2CCN(CCO)CC2)n1 [Dasatinib] + CC(=O)Nc1cccc(-n2c(=O)n(C3CC3)c(=O)c3c(Nc4ccc(I)cc4F)n(C)c(=O)c(C)c32)c1 [Trametinib] (first compound max 2 µM, 7x7, partner max 1 µM) | 0.0189 | -0.0643 | 0.0235 | -0.0184 | -0.0109 | -0.108 | 0.118 | -0.0099 | 0.133 | 0.0243 | 0.131 | -0.159 | -0.0382 | 0.0075 | -0.0242 | 0.0926 | 0.0027 | 0.0017 | -0.0878 |
| NC1(C(=O)N[C@@H](CCO)c2ccc(Cl)cc2)CCN(c2ncnc3[nH]ccc23)CC1 [Capivasertib] + CCN(CCO)CCCOc1ccc2c(Nc3cc(CC(=O)Nc4cccc(F)c4)[nH]n3)ncnc2c1 [AZD2811] (first compound max 10 µM, 7x7, partner max 1 µM) | 0.0222 | -0.0207 | -0.008 | -0.0183 | -0.0676 | -0.0303 | -0.0223 | 0.0515 | -0.0431 | -0.0394 | -0.0478 | -0.0819 | 0.0051 | -0.123 | 0.0078 | -0.0462 | 0.0119 | -0.0426 | -0.0083 |
| CS(=O)(=O)CCNCc1ccc(-c2ccc3ncnc(Nc4ccc(OCc5cccc(F)c5)c(Cl)c4)c3c2)o1 [Lapatinib] + C[C@@H](Oc1cc(-c2cnn(C3CCNCC3)c2)cnc1N)c1c(Cl)ccc(F)c1Cl [Crizotinib] (first compound max 10 µM, 7x7, partner max 10 µM) | -0.025 | -0.0346 | -0.0741 | 0.0062 | -0.0019 | -0.0327 | -0.0237 | 0.0207 | -0.0273 | -0.0424 | -0.0165 | 0.019 | -0.0178 | -0.0236 | 0.0546 | -0.0525 | -0.0477 | 0.0044 | -0.034 |
| C[C@@H](c1ccc2nccn2c1)n1nnc2ncc(-c3cnn(C)c3)nc21 [Savolitinib] + CC1(C)CCC(CN2CCN(c3ccc(C(=O)NS(=O)(=O)c4ccc(NCC5CCOCC5)c([N+](=O)[O-])c4)c(Oc4cnc5[nH]ccc5c4)c3)CC2)=C(c2ccc(Cl)cc2)C1 [Venetoclax] (first compound max 1 µM, 7x7, partner max 1 µM) | -0.0073 | -0.0515 | -0.0707 | -0.0788 | -0.0411 | -0.0559 | -0.0346 | -0.028 | -0.0285 | 0.0191 | -0.0509 | -0.0202 | -0.0211 | -0.0365 | -0.0419 | -0.0416 | -0.0464 | -0.017 | -0.0919 |
| COc1cc2ncnc(Nc3ccc(F)c(Cl)c3)c2cc1OCCCN1CCOCC1 [Gefitinib] + CC(C)n1c(=O)n(C)c2cnc3cc(F)c(-c4ccc(OCCCN5CCCCC5)nc4)cc3c21 [AZD1390] (first compound max 10 µM, 7x7, partner max 0.3 µM) | -0.0303 | -0.0432 | -0.0352 | -0.0401 | -0.0707 | -0.0406 | -0.0856 | -0.0614 | -0.0241 | -0.0364 | -0.0456 | -0.0852 | -0.0434 | 0.003 | -0.0157 | -0.0821 | -0.0498 | -0.0543 | -0.0857 |
| NC1(C(=O)N[C@@H](CCO)c2ccc(Cl)cc2)CCN(c2ncnc3[nH]ccc23)CC1 [Capivasertib] + C[C@@H]1COCCN1C2=NC(=NC(=C2)C3(CC3)[S@](=N)(=O)C)C4=C5C=CNC5=NC=C4 [AZD6738] (first compound max 10 µM, 7x7, partner max 10 µM) | -0.035 | -0.0448 | -0.0156 | -0.0161 | -0.0315 | 0.0297 | -0.0502 | -0.0156 | -0.0529 | 0.0038 | -0.0282 | -0.04 | -0.0149 | -0.0552 | -0.0045 | -0.0391 | -0.0459 | -0.0238 | 0.0083 |
| NC1(C(=O)N[C@@H](CCO)c2ccc(Cl)cc2)CCN(c2ncnc3[nH]ccc23)CC1 [Capivasertib] + CC(C)n1c(=O)n(C)c2cnc3cc(F)c(-c4ccc(OCCCN5CCCCC5)nc4)cc3c21 [AZD1390] (first compound max 10 µM, 7x7, partner max 0.3 µM) | -0.0449 | -0.111 | -0.0965 | -0.0658 | -0.0447 | -0.0399 | -0.0368 | 0.0033 | -0.0379 | -0.0318 | -0.0394 | -0.0656 | -0.0558 | -0.193 | -0.0156 | -0.0329 | -0.0634 | -0.0374 | -0.0784 |
| Cn1cnc2c(F)c(Nc3ccc(Br)cc3Cl)c(C(=O)NOCCO)cc21 [Selumetinib] + CC(C)n1c(=O)n(C)c2cnc3cc(F)c(-c4ccc(OCCCN5CCCCC5)nc4)cc3c21 [AZD1390] (first compound max 10 µM, 7x7, partner max 0.3 µM) | -0.0084 | -0.0365 | -0.0337 | 0.0182 | -0.0237 | -0.0376 | -0.0442 | -0.0171 | -0.0251 | -0.0529 | -0.0094 | -0.073 | -0.0429 | 0.0029 | -0.0201 | -0.0074 | -0.0463 | -0.026 | -0.0291 |
| Cn1cnc2c(F)c(Nc3ccc(Br)cc3Cl)c(C(=O)NOCCO)cc21 [Selumetinib] + CCN(CCO)CCCOc1ccc2c(Nc3cc(CC(=O)Nc4cccc(F)c4)[nH]n3)ncnc2c1 [AZD2811] (first compound max 10 µM, 7x7, partner max 1 µM) | 0.0702 | 0.0048 | -0.0316 | -0.0271 | -0.0106 | -0.0409 | -0.042 | 0.055 | 0.0264 | -0.0089 | 0.058 | 0.0017 | -0.0227 | 0.0338 | -0.0216 | 0.0253 | -0.0317 | -0.0434 | -0.0206 |
| COc1nnc2ccc(N3CCC(c4ccc(OCCN5CCN(C)C(=O)[C@H]5C)cc4)CC3)nn12 [AZD5153] + Cc1c2c(nn1C)CSCc1cc(n(C)n1)CSc1cc(c3ccccc3c1)OCCCc1c(C(=O)O)n(C)c3c-2c(Cl)ccc13 [AZD5991] (first compound max 1 µM, 7x7, partner max 1 µM) | -0.027 | -0.037 | -0.0281 | -0.0072 | 0.0183 | -0.0473 | -0.0256 | 0.0038 | -0.0255 | 0.0357 | -0.0252 | -0.0038 | 0.0283 | -0.025 | -0.0131 | -0.0056 | -0.0235 | 0.0139 | -0.0507 |
| CC(=O)c1c(C)c2cnc(Nc3ccc(N4CCNCC4)cn3)nc2n(C2CCCC2)c1=O [Palbociclib] + CC1(C)CCC(CN2CCN(c3ccc(C(=O)NS(=O)(=O)c4ccc(NCC5CCOCC5)c([N+](=O)[O-])c4)c(Oc4cnc5[nH]ccc5c4)c3)CC2)=C(c2ccc(Cl)cc2)C1 [Venetoclax] (first compound max 10 µM, 7x7, partner max 1 µM) | 0.0074 | -0.0214 | 0.023 | 0.0452 | -0.0146 | -0.0041 | -0.0708 | -0.0251 | 0.0278 | 0.0365 | -0.0267 | -0.0215 | -0.0381 | -0.0842 | -0.0096 | -0.046 | -0.0461 | 0.0598 | -0.0309 |
| COc1nnc2ccc(N3CCC(c4ccc(OCCN5CCN(C)C(=O)[C@H]5C)cc4)CC3)nn12 [AZD5153] + CC1(C)CCC(CN2CCN(c3ccc(C(=O)NS(=O)(=O)c4ccc(NCC5CCOCC5)c([N+](=O)[O-])c4)c(Oc4cnc5[nH]ccc5c4)c3)CC2)=C(c2ccc(Cl)cc2)C1 [Venetoclax] (first compound max 1 µM, 7x7, partner max 1 µM) | -0.0399 | -0.0896 | -0.085 | 0.0309 | -0.0487 | -0.0571 | -0.0717 | -0.0752 | -0.0495 | -0.0594 | -0.0485 | -0.0379 | -0.0564 | -0.0551 | -0.0486 | -0.0577 | -0.0251 | 0.0433 | -0.0547 |
| NC1(C(=O)N[C@@H](CCO)c2ccc(Cl)cc2)CCN(c2ncnc3[nH]ccc23)CC1 [Capivasertib] + Cn1cnc2c(F)c(Nc3ccc(Br)cc3Cl)c(C(=O)NOCCO)cc21 [Selumetinib] (first compound max 10 µM, 7x7, partner max 10 µM) | -0.0428 | 0.0724 | -0.0277 | 0.0683 | -0.0014 | 0.016 | 0.071 | 0.0024 | 0.0482 | -0.0548 | 0.0152 | 0.021 | 0.0187 | 0.0106 | -0.0214 | -0.0047 | -0.05 | 0.0796 | 0.0315 |
| COc1nnc2ccc(N3CCC(c4ccc(OCCN5CCN(C)C(=O)[C@H]5C)cc4)CC3)nn12 [AZD5153] + CN(CC[C@H](CSC1=CC=CC=C1)NC2=C(C=C(C=C2)S(=O)(=O)NC(=O)C3=CC=C(C=C3)N4CCC(CC4)[C@H](C5=CC=CC=C5C6=CC=C(C=C6)Cl)O)S(=O)(=O)C(F)(F)F)CCO [AZD4320] (first compound max 1 µM, 7x7, partner max 1 µM) | – | – | -0.0243 | 0.0258 | – | 0.0033 | – | 0.0372 | – | – | – | -0.0203 | – | – | -0.128 | – | – | 0.0274 | 0.0122 |
| Cn1cnc2c(F)c(Nc3ccc(Br)cc3Cl)c(C(=O)NOCCO)cc21 [Selumetinib] + C[C@@H]1COCCN1C2=NC(=NC(=C2)C3(CC3)[S@](=N)(=O)C)C4=C5C=CNC5=NC=C4 [AZD6738] (first compound max 10 µM, 7x7, partner max 10 µM) | -0.0301 | -0.0257 | -0.0474 | 0.0063 | -0.0144 | 0.0286 | 0.0116 | 0.0516 | -0.033 | -0.069 | 0.0363 | -0.039 | -0.0506 | -0.0299 | -0.0454 | -0.0351 | -0.0316 | 0.0047 | 0.0935 |
